In US6391892B1, “Naphthyl pharmaceutical compounds” (Eli Lilly and Company, priority 1995, dated 2002):

Tested on: ovariectomized (OVX) female Sprague Dawley rats
Test: Osteoporosis Test Procedure (ovariectomized rat, femur density)
Type: in vivo
Settings: orally administered in 20% hydroxypropyl cyclodextrin, daily for 35 days, compared to intact, vehicle treated controls
Excerpt: Seventy-five day old female Sprague Dawley rats (weight range of 200 to 225 g) are obtained from Charles River Laboratories (Portage, Mich.). The animals are either bilaterally ovariectomized (OVX) or exposed to a Sham surgical procedure at Charles River Laboratories, and then shipped after one week. Upon arrival, they are housed in metal hanging cages in groups of 3 or 4 per cage and have ad libitum access to food (calcium content approximately 0.5%) and water for one week. Room temperature is maintained at 22.2°±1.70° C. with a minimum relative humidity of 40%. The photoperiod in the room is 12 hours light and 12 hours dark.
After a one week acclimation period (therefore, two weeks post-OVX) daily dosing with test compound is initiated. […] The animals are then sacrificed by asphyxiation with CO2, the uterus is removed through a midline incision, and a wet uterine weight is determined.
Following the General Preparation Procedure, infra, the rats are treated daily for 35 days (6 rats per treatment group) and sacrificed by carbon dioxide asphyxiation on the 36th day. The 35 day time period is sufficient to allow maximal reduction in bone density, measured as described herein. […]
The right femurs are excised and digitilized x-rays generated and analyzed by an image analysis program (NIH image) at the distal metaphysis. […]

Compound: C#C[C@]1(O)CC[C@H]2[C@@H]3CCc4cc(O)ccc4[C@H]3CC[C@@]21C [ethynyl estradiol, 17α-ethynyl estradiol]
- reduction in femur density caused by ovariectomy: prevented this loss
